Experimental data published in US20220315621A1, “COMPOSITIONS AND METHODS FOR TREATING CNS DISORDERS” (priority 2017, published 2022).

Biological target: TBPS binding
Assay: Steroid inhibition of TBPS binding
Details: Table II-2; read-out: TBPS IC50 (μm)

Structure (SMILES)	IC50
Cc1nnn(CC(=O)[C@H]2CC[C@H]3[C@@H]4CC=C5CC[C@](C)(O)CC[C@]5(C)[C@H]4CC[C@]23C)n1 [II-F6, 1-((1S,3aS,3bS,8S,10aR,10bS,12aS)-8-hydroxy-8,10a,12a-trimethyl-1,2,3,3a,3b,4,6,7,8,9,10,10a,10b,11,12,12a-hexadecahydrocyclohepta[a]cyclopenta[f]naphthalen-1-yl)-2-(5-methyl-2H-tetrazol-2-yl)ethan-1-one]	10 to 100 nM
CC(=O)[C@H]1CC[C@H]2[C@@H]3CC[C@H]4C[C@H](O)CCC[C@]4(C)[C@H]3CC[C@]12C [II-B5, 1-((1S,3aS,3bR,5aS,7R,10aS,10bS,12aS)-7-hydroxy-10a,12a-dimethyloctadecahydrocyclohepta[a]cyclopenta[f]naphthalen-1-yl)ethan-1-one]	100 to 1000 nM
COC[C@]1(O)C[C@H]2CC[C@@H]3[C@H](CC[C@]4(C)[C@@H](C(C)=O)CC[C@@H]34)[C@H]2C1 [II-J9, 1-((1S,3aS,3bR,5aR,7S,8aS,8bR,10aS)-7-hydroxy-7-(methoxymethyl)-10a-methylhexadecahydrodicyclopenta[a,f]naphthalen-l-yl)ethan-1-one]	100 to 1000 nM
CC(=O)[C@H]1CC[C@H]2[C@@H]3CC[C@@H]4CC[C@](C)(O)CC[C@@H]4[C@H]3CC[C@]12C [II-F8, 1-((1S,3aS,3bR,5aR,8S,10aS,10bR,12aS)-8-hydroxy-8,12a-dimethyloctadecahydrocyclohepta[a]cyclopenta[f]naphthalen-1-yl)ethan-1-one]	100 to 1000 nM
CC(=O)[C@H]1CC[C@H]2[C@@H]3CC[C@@H]4C[C@](C)(O)CCC[C@@H]4[C@H]3CC[C@]12C [II-E8a, 1-((1S,3aS,3bR,5aR,7R,10aS,10bR,12aS)-7-hydroxy-7,12a-dimethyloctadecahydrocyclohepta[a]cyclopenta[f]naphthalen-1-yl)ethan-1-one]	10 to 100 nM
C[C@]1(O)CCC[C@@]2(C)[C@@H](CC[C@@H]3[C@@H]2CC[C@]2(C)[C@@H](C(=O)Cn4cc(C#N)cn4)CC[C@@H]32)C1 [II-D5b, 1-(2-((1S,3aS,3bR,5aS,7S,10aS,10bS,12aS)-7-hydroxy-7,10a,12a-trimethyloctadecahydrocyclohepta[a]cyclopenta[f]naphthalen-1-yl)-2-oxoethyl)-1H-pyrazole-4-carbonitrile]	100 to 1000 nM
CC(=O)[C@H]1CC[C@H]2[C@@H]3CC[C@H]4CC[C@](C)(O)CC[C@]4(C)[C@H]3CC[C@]12C [II-C3, 1-((1S,3aS,3bR,5aS,8S,10aS,10bS,12aS)-8-hydroxy-8,10a,12a-trimethyloctadecahydrocyclohepta[a]cyclopenta[f]naphthalen-1-yl)ethan-1-one]	10 to 100 nM
C[C@@]1(O)CC[C@@H]2CC[C@@H]3[C@H](CC[C@]4(C)[C@@H](C(=O)Cn5cc(C#N)cn5)CC[C@@H]34)[C@@]2(C)CC1 [II-C8, 1-(2-((1S,3aS,3bR,5aS,8R,10aS,10bS,12aS)-8-hydroxy-8,10a,12a-trimethyloctadecahydrocyclohepta[a]cyclopenta[f]naphthalen-1-yl)-2-oxoethyl)-1H-pyrazole-4-carbonitrile]	100 to 1000 nM
C[C@]1(O)C[C@H]2CC[C@@H]3[C@H](CC[C@]4(C)[C@@H](C(=O)Cn5nccn5)CC[C@@H]34)[C@H]2C1 [II-G11, 1-((1S,3aS,3bR,5aR,7S,8aS,8bR,10aS)-7-hydroxy-7,10a-dimethylhexadecahydrodicyclopenta[a,f]naphthalen-1-yl)-2-(2H-1,2,3-triazol-2-yl)ethan-1-one]	100 to 1000 nM
C[C@]1(O)CC[C@H]2CC[C@@H]3[C@H](CC[C@]4(C)[C@@H](C(=O)Cn5cc(C#N)cn5)CC[C@@H]34)[C@H]2CC1 [II-F11, 1-(2-((1S,3aS,3bR,5aR,8S,10aS,10bR,12aS)-8-hydroxy-8,12a-dimethyloctadecahydrocyclohepta[a]cyclopenta[f]naphthalen-1-yl)-2-oxoethyl)-1H-pyrazole-4-carbonitrile]	100 to 1000 nM
C[C@]12CC[C@@H]3[C@H]4CC[C@@](C)(O)[C@@H]4CC[C@H]3[C@@H]1CC[C@@H]2C(=O)Cn1cc(C#N)cn1 [II-H13, 1-(2-((1S,3aS,3bR,5aR,6R,8aR,8bS,10aS)-6-hydroxy-6,10a-dimethylhexadecahydrodicyclopenta[a,f]naphthalen-1-yl)-2-oxoethyl)-1H-pyrazole-4-carbonitrile]	1000 to 10000 nM

Same assay, conditions: Table III-1; read-out: TBPS IC50

Structure (SMILES)	IC50
CC(=O)[C@H]1CC[C@H]2[C@@H]3CCC[C@H]4C[C@](C)(O)CC[C@@H]4[C@H]3CC[C@]12C [III-A13, 1-((1S,3aS,3bR,6aS,8R,10aS,10bR,12aS)-8-hydroxy-8,12a-dimethyloctadecahydrobenzo[3,4]cyclohepta[1,2-e]inden-1-yl)ethan-1-one]	1000 to 10000 nM
C[C@@]1(O)CC[C@H]2[C@@H](CCC[C@@H]3[C@@H]2CC[C@]2(C)[C@@H](C(=O)Cn4cc(C#N)cn4)CC[C@@H]32)C1 [III-A15, 1-(2-((1S,3aS,3bR,6aS,8R,10aS,10bR,12aS)-8-hydroxy-8,12a-dimethyloctadecahydrobenzo[3,4]cyclohepta[1,2-e]inden-1-yl)-2-oxoethyl)-1H-pyrazole-4-carbonitrile]	100 to 1000 nM

Same assay, conditions: Table IV-2; read-out: TBPS IC50

Structure (SMILES)	IC50
CC(=O)[C@H]1CC[C@H]2[C@@H]3C[C@H]4C[C@](C)(O)CC[C@@H]4[C@H]3CC[C@]12C [IV-B7, 1-((3S,3aS,5aR,5bS,8R,9aS,10aR,10bS)-8-hydroxy-3a,8-dimethylhexadecahydrocyclopenta[a]fluoren-3-yl)ethan-1-one]	10 to 100 nM
C[C@@]1(O)CC[C@H]2[C@H](C[C@@H]3[C@@H]2CC[C@]2(C)[C@@H](C(=O)Cn4cc(C#N)cn4)CC[C@@H]32)C1 [IV-A16, 1-(2-((3S,3aS,5aR,5bS,8R,9aR,10aR,10bS)-8-hydroxy-3a,8-dimethylhexadecahydrocyclopenta[a]fluoren-3-yl)-2-oxoethyl)-1H-pyrazole-4-carbonitrile]	10 to 100 nM

Biological target: GABAA receptor (rat brain cortical membranes, [35S]-TBPS binding)
Assay: not given
Details: Table I-4; rat brain cortical membranes, 3 nM [35S]-TBPS, in the presence of 5 mM GABA

Structure (SMILES)	IC50
CNC[C@H]1CCC[C@H]2[C@@H]3CC[C@@H]4C[C@](C)(O)CC[C@@H]4[C@H]3CC[C@]12C [I-C5, (2R,4aS,4bR,6aS,7S,10aS,10bR,12aR)-2,6a-dimethyl-7-((methylamino)methyl)octadecahydrochrysen-2-ol]	1000 to 10000 nM
CN(C[C@H]1CCC[C@H]2[C@@H]3CC[C@@H]4C[C@](C)(O)CC[C@@H]4[C@H]3CC[C@]12C)S(=O)(=O)c1ccccc1 [I-A8, N-(((1S,4aS,4bR,6aR,8R,10aS,10bR,12aS)-8-hydroxy-8,12a-dimethyloctadecahydrochrysen-l-yl)methyl)-N-methylbenzenesulfonamide]	10 to 100 nM

Same assay, conditions: Table I-5; rat brain cortical membranes, 3 nM [35S]-TBPS, in the presence of 5 mM GABA

Structure (SMILES)	IC50
COC[C@H]1C[C@H]2[C@@H]3CC[C@@H]4C[C@](C)(O)CC[C@@H]4[C@H]3CC[C@]12C [Compound I-117, (1S,2aS,2bR,4aR,6R,8aS,8bR,10aS)-1-(methoxymethyl)-6,10a-dimethylhexadecahydrocyclobuta[a]phenanthren-6-ol]	100 to 1000 nM
